Converted amounts (≈) assume the structure as drawn. Read-outs that look alike come from different tables or passages of the source.
Legend:
[1] = test system: PrP^Sc in dividing ScN2a-cl3 cells; assay type: cell-based, mouse
[2] = test system: PrP^Sc in ScN2a-cl3 cells; assay type: cell-based, mouse; conditions: Western immunoblots
in vitro = conditions: mouse
N2a-cl3 cells = conditions: mouse
[3] = Single-dose pharmacokinetics in FVB mice (oral gavage, IV); conditions: single oral dose 10 mg/kg; for Brain/Plasma AUClast Ratio: FVB mice; for AUClast ± SD, Brain / AUClast ± SD, Plasma: two FVB mice
[4] = pH 1.2, simulated gastric fluid
[5] = read-out: EC50 (nM): ELISA, dividing ScN2a-cl3 cells
[6] = read-out: Potency (nM) ELISA (EC50), PrP^Sc ELISA, dividing ScN2a-cl3 cells
[7] = read-out: EC50 (nM): Western, ScN2a-cl3 cells
[8] = read-out: Potency (nM) Western (EC50), dividing ScN2a-cl3 cells

SMILES	solubility (physchem; [4])	solubility (physchem; pH 7.4, aqueous buffer)	EC50 [1, 5]	EC50 [1, 6]	EC50 [2, 7]	EC50 [2, 8]	CC50 (in vitro)	EC50 (nM): Calcein (LC50 values from calcein assays) (N2a-cl3 cells)	Brain/Plasma AUClast Ratio [3]	AUClast ± SD, Brain [3]	AUClast ± SD, Plasma [3]	EC50 ([1]; read-out: Antiprion activity EC50, thienopyridine analogs)
CN(C)c1cc(-c2ccc(-c3csc(NC(=O)C4CC4)n3)cc2)ccn1 [IND- 116123]	> 150 µM	< 0.5 µM	–	–	–	–	–	–	–	–	–	–
Cc1cccc(Nc2nc(-c3ccc(-c4ccnc(N5CCN(C)CC5)c4)cc3)cs2)n1 [IND-0116134]	81.8 µM (≈ 36.2 µg/mL)	40.2 µM (≈ 17.8 µg/mL)	–	–	–	–	–	–	–	–	–	–
COc1ccc(-c2nc3cc(NC(=O)c4ccc(OCc5ccccc5)cc4)ccc3o2)cc1 [IND-0114202]	–	–	57 nM	57 nM	2560 nM	2560 nM	> 10000 nM	MW: 450.5 EC50 (nM): ELISA: 57 Calcein: >10,000 Western: 2565	–	–	–	–
CC(=O)c1ccc(N2CCN(Cc3ccccc3)CC2)cc1 [IND-0019136]	–	–	8680 nM	8680 nM	615 nM	615 nM	> 10000 nM	MW: 294.4 EC50 (nM): ELISA: 8681 Calcein: >10,000 Western: 615	–	–	–	–
Cc1[nH]c2ccccc2c1-c1csc(-c2cccnc2)n1 [IND-0024352]	–	–	2270 nM	2270 nM	1700 nM	1700 nM	> 10000 nM	MW: 291.4 EC50 (nM): ELISA: 2267 Calcein: >10,000 Western: 1698	–	–	–	–
Oc1ccc(/C=C/c2cc(O)cc(O)c2)cc1 [IND-0047971]	–	–	2260 nM	2260 nM	584 nM	584 nM	> 10000 nM	MW: 228.2 EC50 (nM): ELISA: 2260 Calcein: >10,000 Western: 584	–	–	–	–
CCOc1ccc(C(=O)Nc2ccc3oc(-c4ccc(OC)cc4)nc3c2)cc1 [IND-0114138]	–	–	65 nM	65 nM	134 nM	134 nM	> 10000 nM	MW: 388.4 EC50 (nM): ELISA: 65 Calcein: >10,000 Western: 134	–	–	–	–
COc1cccc(Nc2nc(N)c3ccccc3n2)c1 [IND-0035916]	–	–	4020 nM	4020 nM	5990 nM	5990 nM	> 10000 nM	MW: 266.3 EC50 (nM): ELISA: 4023 Calcein: >10,000 Western: 5987	–	–	–	–
Cc1cccc(Nc2nc(-c3ccc(-c4cc[n+]([O-])cc4)cc3)cs2)n1 [IND-0116092]	17.6 µM (≈ 6.34 µg/mL)	15.2 µM (≈ 5.48 µg/mL)	–	–	–	–	–	–	–	–	–	–
COc1ccc(-c2cc(-c3ccc(OC)cc3O)[nH]n2)cc1 [IND-0025807]	–	–	167 nM	167 nM	95 nM	95 nM	> 10000 nM	MW: 296.3 EC50 (nM): ELISA: 167 Calcein: >10,000 Western: 95	–	–	–	–
CCOc1ccc(NC(=O)c2cc3ccccc3cc2O)cc1 [IND-0031751]	–	–	156 nM	156 nM	42 nM	42 nM	> 10000 nM	MW: 307.3 EC50 (nM): ELISA: 156 Calcein: >10,000 Western: 42	–	–	–	–
N#Cc1sc2nc(-c3ccc4c(c3)OCO4)ccc2c1N [IND-0052851]	–	–	962 nM	962 nM	518 nM	518 nM	> 10000 nM	MW: 295.3 EC50 (nM): ELISA: 962 Calcein: >10,000 Western: 518	2.59	2.12 ± 0.93 µM·h	0.82 ± 0.31 µM·h	–
Cn1c(=N)n(CC(=O)c2ccc(Cl)cc2)c2ccccc21 [IND-0026326]	–	–	5900 nM	5900 nM	4970 nM	4970 nM	> 10000 nM	MW: 299.8 EC50 (nM): ELISA: 5900 Calcein: >10,000 Western: 4967	–	–	–	–
Cn1c(=N)n(CC(=O)c2ccc(Br)cc2)c2ccccc21 [IND-0044723]	–	–	1980 nM	1980 nM	1450 nM	1450 nM	> 10000 nM	MW: 344.2 EC50 (nM): ELISA: 1983 Calcein: >10,000 Western: 1453	–	–	–	–
COc1ccc(C(=O)Nc2ccc(-c3csc(C)n3)cc2)cc1 [IND-0033145]	–	–	412 nM	412 nM	161 nM	161 nM	> 10000 nM	MW: 324.4 EC50 (nM): ELISA: 412 Calcein: >10,000 Western: 161	–	–	–	–
CCc1ccc(-c2cn3cc(C)ccc3n2)cc1 [IND-0009419]	–	–	709 nM	709 nM	265 nM	285 nM	> 10000 nM	MW: 236.3 EC50 (nM): ELISA: 709 Calcein: >10,000 Western: 265	–	–	–	–
c1ccc2cc(-c3cn4ccsc4n3)ccc2c1 [IND-009413]	–	–	6020 nM	6020 nM	2490 nM	2490 nM	> 10000 nM	MW: 250.2 EC50 (nM): ELISA: 6015 Calcein: >10,000 Western: 2490	–	–	–	–
CN1CCN(c2ccc(Nc3ccnc4cc(Cl)ccc34)cc2)CC1 [IND-0045193]	–	–	1220 nM	1220 nM	2070 nM	2070 nM	> 10000 nM	MW: 352.9 EC50 (nM): ELISA: 1220 Calcein: >10,000 Western: 2073	4.72	7.36 ± 0.78 µM·h	1.56 ± 0.31 µM·h	–
CN(C)CCNc1nc(-c2ccc(Cl)cc2)nc2ccccc12 [IND-0034921]	–	–	3690 nM	3690 nM	2010 nM	2010 nM	> 10000 nM	MW: 326.8 EC50 (nM): ELISA: 3693 Calcein: >10,000 Western: 2009	–	–	–	–
COc1ccc2cc3c(N)c(C(=O)Nc4ccc(C(C)=O)cc4)sc3nc2c1 [IND-0052025]	–	–	57 nM	57 nM	61 nM	61 nM	> 10000 nM	MW: 391.4 EC50 (nM): ELISA: 57 Calcein: >10,000 Western: 61	–	–	–	74 nM
N#Cc1ccc(/C=C/c2ccc(F)cc2)cc1 [IND-0047979]	–	–	1700 nM	1700 nM	528 nM	528 nM	> 10000 nM	MW: 223.3 EC50 (nM): ELISA: 1700 Calcein: >10,000 Western: 528	–	–	–	–
CCc1ccc(-c2cn3ccccc3n2)cc1 [IND-0009417]	–	–	9160 nM	9160 nM	4720 nM	4720 nM	> 10000 nM	MW: 222.3 EC50 (nM): ELISA: 9158 Calcein: >10,000 Western: 4715	–	–	–	–
COc1ccc(-c2cc(-c3ccc(C)cc3O)[nH]n2)cc1 [IND-0028801]	–	–	245 nM	245 nM	117 nM	117 nM	> 10000 nM	MW: 280.3 EC50 (nM): ELISA: 245 Calcein: >10,000 Western: 117	–	–	–	–
COc1cc(CNCCO)cc(Br)c1OCc1ccccc1Cl [IND-0046380]	–	–	5080 nM	5080 nM	2150 nM	2150 nM	> 10000 nM	MW: 400.7 EC50 (nM): ELISA: 5080 Calcein: >10,000 Western: 2148	–	–	–	–
COc1cc(N)c(-c2ccc3cc(OC)c(OC)cc3n2)cc1OC [IND-0044355]	–	–	2140 nM	2140 nM	1830 nM	1830 nM	> 10000 nM	MW: 340.4 EC50 (nM): ELISA: 2143 Calcein: >10,000 Western: 1833	–	–	–	–

From patent publication US20140329863A1 (priority 2011, published 2014)
